Test results reported in US11155586B2, “Cystine knot scaffold platform” (Genentech, Inc., priority 2015, dated 2021).
Positions of bridges follow the written chain, without caps; N, C: chain ends. Non-standard residues stand in square brackets, D forms with d. Residues, ends and D or L forms follow the SMILES beside them. PEG6 = NCCOCCOCCOCCOCCOCCOCCC(=O)O; Pra = C#CC[C@H](N)C(=O)O

Columns and labels:
[1] = target: T1, hVEGF(8-109) (Homo sapiens, UniProt P15692); test: Spot phage ELISA; type: binding
T1 construct: hVEGF(8-109) or BSA were coated on 384-well MAXISORP™ immunoplates
T1 sequence (P15692 214-315): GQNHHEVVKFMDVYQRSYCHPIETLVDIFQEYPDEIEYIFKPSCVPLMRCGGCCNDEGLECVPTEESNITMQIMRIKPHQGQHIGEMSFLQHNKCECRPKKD
Experimental: After four rounds of binding selection, individual phage clones were picked and inoculated into 450 μl 2YT media containing 50 µg/ml Carbenecillin and M13-KO7 helper phage in 96-well blocks, which were grown at 37° C. overnight. The supernatant was analyzed with spot phage ELISA as follows: hVEGF(8-109) or BSA were coated on 384-well MAXISORP™ immunoplates and phage supernatant diluted (1:3) with PBT buffer was added to the wells. The plates were washed and bound phage was detected with anti-M13-HRP followed by TMB substrate. In these assays, phage binding to BSA alone was tested in parallel to assess background binding. Clones whose binding signals for hVEGF-A (8-109) were more than 3 times higher than to BSA (background) were considered positive. Positive clones were subjected to DNA sequence analysis.

[2] = target: T2, hVEGF-A (8-109) (Homo sapiens, UniProt P15692); test: SPR binding assay (BIACORE 3000, 37° C.); conditions: for effect of F8Y mutation on affinity/potency: SPR affinity (Table 37) and cellular IC50 (Table 38), vs variant without F8Y
T2 sequence (P15692 34-135 isoform P15692-4): T1 sequence (P15692 214-315)
Experimental: Depending on the format of the assay either a streptavidin sensor (SA) or a dextran-coated (CM5) sensor was utilized as described below.
For use with the SA sensor, VEGF-A was first biotinylated (no more than 2 biotin/VEGF-A) by incubating the protein with EZ-link NHS-PEG4-Biotin (Pierce) in a 1:1.5 molar ratio respectively, in PBS for 2 hours on ice. Reaction was then quenched by addition of 10 molar excess of Glycine pH 8.0 and the sample was buffer exchanged into PBS using an Amicon 0.5 mL 3000 MWCO ultra-centrifugal filters (EMD Millipore). The biotinylation state of the protein was verified by LC-MS analysis. Biotinylated VEGF-A was then captured on the surface until a resonance unit (RU) signal of about ˜400. For immobilization of VEGF-A on CM5 sensor, the surface was first activated with a mixture of N-ethyl-N′-(3-dimethylaminopropyl)carbodiimide hydrochloride and N-hydroxysuccinimide (EDC/NHS) according to the supplier instructions. VEGF-A was then diluted into coupling buffer (0.1 M Acetate Buffer, pH 5.0) and injected until the signal reached about ˜400 RU followed by a wash with 1 M ethanolamine pH 8.0 to quench remaining activated sites.
Following the capture step, a series of the peptide concentrations were prepared in HBS-EP buffer with matching DMSO concentrations to 0.1% and injected at a flow rate of […]. The resulting sensorgrams were then analyzed using a 1:1 binding model to obtain kinetic data and affinities using Scrubber 2.0 (BioLogic Software).

[3] = loop 2 variants based on VEGF_CKP9.63 framework, Table 27
[4] = Table 37, surface plasmon resonance, VEGF-A

Compound | S/N (signal to noise ratio as compared to BSA control) ([1]; Table 27) | ELISA [1, 3] | kd [2, 4] | other results
CSCC[C@@H]1NC(=O)[C@H](C(C)C)NC(=O)[C@H](CC(=O)O)NC(=O)[C@@H](NC(=O)CN)CSSC[C@@H](C(=O)N[C@H](C(=O)N[C@H]2CSSC[C@@H](C(=O)NCC(=O)O)NC(=O)[C@H](CO)NC(=O)[C@H](CC(N)=O)NC(=O)[C@H](Cc3ccc(O)cc3)NC(=O)[C@H](Cc3c[nH]c4ccccc34)NC(=O)[C@H](Cc3c[nH]cn3)NC2=O)C(C)C)NC(=O)CNC(=O)[C@H](C)NC(=O)[C@H](CC(C)C)NC(=O)[C@@H]2CSSC[C@H](NC(=O)CNC(=O)[C@H](Cc3c[nH]c4ccccc34)NC(=O)[C@H](Cc3ccc(O)cc3)NC(=O)[C@@H]3CCCN3C(=O)[C@H](CCC(N)=O)NC1=O)C(=O)NCC(=O)N[C@@H](CCC(=O)O)C(=O)N[C@@H](CO)C(=O)N[C@@H](CC(C)C)C(=O)N[C@@H](CO)C(=O)N2 [VEGF_CKP9.63.69] (H-GCDVMQPYWGCGESLSCLAGCVCHWYNSCG-OH; disulfide 2-21, 11-17, 23-29 (inferred); N-terminus and C-terminus assumed) | 23.7 | 2.9 |  | kd ([2]; hVEGF-A (8-109), Table 29): 0.20
CC[C@H](C)[C@@H]1NC(=O)[C@H](CC(N)=O)NC(=O)[C@@H](NC(=O)CN)CSSC[C@@H](C(=O)N[C@H](C(=O)N[C@H]2CSSC[C@@H](C(=O)NCC(=O)O)NC(=O)[C@H](CO)NC(=O)[C@H](CCC(N)=O)NC(=O)[C@H](Cc3ccc(O)cc3)NC(=O)[C@H](Cc3ccc(O)cc3)NC(=O)[C@H](CCC(N)=O)NC2=O)C(C)C)NC(=O)CNC(=O)[C@H](C)NC(=O)[C@H](CC(C)C)NC(=O)[C@@H]2CSSC[C@H](NC(=O)CNC(=O)[C@H](Cc3c[nH]c4ccccc34)NC(=O)[C@H](Cc3ccccc3)NC(=O)[C@@H]3CCCN3C(=O)[C@H](CC(C)C)NC(=O)[C@H](CCSC)NC1=O)C(=O)NCC(=O)N[C@@H](CCC(N)=O)C(=O)N[C@@H](CO)C(=O)N[C@@H](Cc1ccccc1)C(=O)N[C@@H](CCC(=O)O)C(=O)N2 [VEGF_CKP9.54.1] (H-GCNIMLPFWGCGQSFECLAGCVCQYYQSCG-OH; disulfide 2-21, 11-17, 23-29 (inferred); N-terminus and C-terminus assumed) |  |  | 0.36 | S/N (signal to noise ratio as compared to BSA control) ([1]; Table 26): 29.9; ELISA ([1]; loop 2 variants based on 9.54 framework, Table 26): 2.4
CC[C@H](C)[C@@H]1NC(=O)[C@H](CC(N)=O)NC(=O)[C@@H](NC(=O)CN)CSSC[C@@H](C(=O)N[C@H](C(=O)N[C@H]2CSSC[C@@H](C(=O)NCC(=O)O)NC(=O)[C@H](CO)NC(=O)[C@H](CCC(N)=O)NC(=O)[C@H](Cc3ccc(O)cc3)NC(=O)[C@H](Cc3ccc(O)cc3)NC(=O)[C@H](CCC(N)=O)NC2=O)C(C)C)NC(=O)CNC(=O)[C@H](C)NC(=O)[C@H](CC(C)C)NC(=O)[C@@H]2CSSC[C@H](NC(=O)CNC(=O)[C@H](Cc3c[nH]c4ccccc34)NC(=O)[C@H](Cc3ccc(O)cc3)NC(=O)[C@@H]3CCCN3C(=O)[C@H](CC(C)C)NC(=O)[C@H](CCSC)NC1=O)C(=O)NCC(=O)N[C@@H](CCC(N)=O)C(=O)N[C@@H](CO)C(=O)N[C@@H](Cc1ccccc1)C(=O)N[C@@H](CCC(=O)O)C(=O)N2 [VEGF_CKP9.54.1.F8Y] (H-GCNIMLPYWGCGQSFECLAGCVCQYYQSCG-OH; disulfide 2-21, 11-17, 23-29 (inferred); N-terminus and C-terminus assumed) |  |  | 0.38 | effect of F8Y mutation on affinity/potency [2]: modest improvement
CC[C@H](C)[C@@H]1NC(=O)[C@H](CC(N)=O)NC(=O)[C@@H](NC(=O)CN)CSSC[C@@H](C(=O)N[C@H](C(=O)N[C@H]2CSSC[C@@H](C(=O)NCC(=O)O)NC(=O)[C@H](CO)NC(=O)[C@H](CCC(N)=O)NC(=O)[C@H](Cc3ccc(O)cc3)NC(=O)[C@H](Cc3ccc(O)cc3)NC(=O)[C@H](CCC(N)=O)NC2=O)C(C)C)NC(=O)CNC(=O)[C@H](C)NC(=O)[C@H](CC(C)C)NC(=O)[C@@H]2CSSC[C@H](NC(=O)CNC(=O)[C@H](Cc3c[nH]c4ccccc34)NC(=O)[C@H](Cc3ccc(O)cc3)NC(=O)[C@@H]3CCCN3C(=O)[C@H](CC(C)C)NC(=O)[C@H](CCSC)NC1=O)C(=O)NCC(=O)N[C@@H](CCCNC(=N)N)C(=O)N[C@@H](CC(=O)O)C(=O)N[C@@H](Cc1ccccc1)C(=O)N[C@@H](CCC(=O)O)C(=O)N2 [VEGF_CKP9.54.90.F8Y] (H-GCNIMLPYWGCGRDFECLAGCVCQYYQSCG-OH; disulfide 2-21, 11-17, 23-29 (inferred); N-terminus and C-terminus assumed) |  |  | 0.27 | effect of F8Y mutation on affinity/potency [2]: modest improvement
CC(C)C[C@@H]1NC(=O)[C@@H]2CSSC[C@H](NC(=O)CNC(=O)[C@H](Cc3c[nH]c4ccccc34)NC(=O)[C@H](Cc3ccccc3)NC(=O)[C@@H]3CCCN3C(=O)[C@H](CCC(N)=O)NC(=O)[C@H]([C@@H](C)O)NC(=O)[C@H](CCCNC(=N)N)NC(=O)[C@H](CCC(N)=O)NC(=O)[C@@H](NC(=O)CN)CSSC[C@@H](C(=O)N[C@H](C(=O)N[C@H]3CSSC[C@@H](C(=O)NCC(=O)O)NC(=O)[C@H](CO)NC(=O)[C@H](CCC(N)=O)NC(=O)[C@H](Cc4ccc(O)cc4)NC(=O)[C@H](Cc4c[nH]c5ccccc45)NC(=O)[C@H](CCCNC(=N)N)NC3=O)C(C)C)NC(=O)CNC(=O)[C@H](C)NC1=O)C(=O)N[C@@H](CCCCN)C(=O)N[C@@H](CCC(N)=O)C(=O)N[C@@H](CC(=O)O)C(=O)N[C@@H](CO)C(=O)N[C@@H](CC(=O)O)C(=O)N2 [VEGF_CKP9.22] (H-GCQRTQPFWGCKQDSDCLAGCVCRWYQSCG-OH; disulfide 2-21, 11-17, 23-29 (inferred); N-terminus and C-terminus assumed) |  |  |  | S/N (signal to noise ratio as compared to BSA control) ([1]; Table 24): 17.2; ELISA ([1]; VEGF_CKP9 Loop1/Loop5 affinity-matured variants, Table 24): 1.2
GCDVMQPYWGCAGDELCLAGCVCHWYNSCG [VEGF_CKP9.63.30] | 26.0 | 2.0 |  | 
GCDVMQPYWGCGLDEECLAGCVCHWYNSCG [VEGF_CKP9.63.37] | 8.6 | 0.6 |  | 
GCDVMQPYWGCDLNYECLAGCVCHWYNSCG [VEGF_CKP9.63.87] | 8.6 | 0.9 |  | 
C#CC[C@H](N)C(=O)NCCOCCOCCOCCOCCOCCOCCC(=O)N[C@H]1CSSC[C@@H](C(=O)N[C@H](C(=O)N[C@H]2CSSC[C@@H](C(=O)NCC(=O)O)NC(=O)[C@H](CO)NC(=O)[C@H](CCC(N)=O)NC(=O)[C@H](Cc3ccc(O)cc3)NC(=O)[C@H](Cc3ccc(O)cc3)NC(=O)[C@H](CCC(N)=O)NC2=O)C(C)C)NC(=O)CNC(=O)[C@H](C)NC(=O)[C@H](CC(C)C)NC(=O)[C@@H]2CSSC[C@H](NC(=O)CNC(=O)[C@H](Cc3c[nH]c4ccccc34)NC(=O)[C@H](Cc3ccccc3)NC(=O)[C@@H]3CCCN3C(=O)[C@H](CC(C)C)NC(=O)[C@H](CCSC)NC(=O)[C@H]([C@@H](C)CC)NC(=O)[C@H](CC(N)=O)NC1=O)C(=O)NCC(=O)N[C@@H](CCCNC(=N)N)C(=O)N[C@@H](CC(=O)O)C(=O)N[C@@H](Cc1ccccc1)C(=O)N[C@@H](CCC(=O)O)C(=O)N2 [VEGF_CKP9.54.90-Alkyn] (H-[Pra][PEG6]CNIMLPFWGCGRDFECLAGCVCQYYQSCG-OH; disulfide 3-22, 12-18, 24-30; N-terminus and C-terminus assumed) |  |  | 0.27 | 
CC[C@H](C)[C@@H]1NC(=O)[C@H](CC(=O)O)NC(=O)[C@H](Cc2c[nH]cn2)NC(=O)[C@@H]2CCCN2C(=O)[C@H](CCC(=O)O)NC(=O)[C@H](Cc2c[nH]c3ccccc23)NC(=O)[C@@H]2CCCN2C(=O)[C@H]([C@@H](C)O)NC(=O)[C@H](CCCNC(=N)N)NC(=O)[C@@H](NC(=O)CN)CSSC[C@@H]2NC(=O)CNC(=O)[C@H](C)NC(=O)[C@H](CC(C)C)NC(=O)[C@@H]3CSSC[C@@H](C(=O)NCC(=O)O)NC(=O)[C@H](Cc4ccccc4)NC(=O)CNC(=O)[C@H](CC(N)=O)NC(=O)[C@@H]4CCCN4C(=O)CNC(=O)[C@H](CSSC[C@H](NC(=O)[C@H]([C@@H](C)O)NC1=O)C(=O)N[C@@H](CCCCN)C(=O)N[C@@H](CCC(N)=O)C(=O)N[C@@H](CC(=O)O)C(=O)N[C@@H](CO)C(=O)N[C@@H](CC(=O)O)C(=O)N3)NC(=O)[C@H](C(C)C)NC2=O [VEGF_CKP11] (H-GCRTPWEPHDITCKQDSDCLAGCVCGPNGFCG-OH; disulfide 2-23, 13-25, 19-31; N-terminus and C-terminus assumed) |  |  |  | S/N (signal to noise ratio as compared to BSA control) ([1]; Table 19): 57.5; ELISA ([1]; spot phage ELISA signal, EETI-II-based binders against hVEGF-A, Table 19): 4.1
